Data as given in patent US12643907B2 (priority 2020, dated 2026).
“Also recorded” adds a separate entry of the source.

Legend:
MOR = target: T1, MOR (Mus musculus, UniProt P42866); test: Mouse 55° C. warm-water tail withdrawal (WWTW) assay, antagonism of the MOR agonist morphine; type: in vivo; conditions: for antagonism of morphine-induced antinociception at 24 h: 24 h after a 30 mg/kg s.c. treatment
T1 construct: from tissue; host or cells: living mice (in vivo)

mice = test: Mouse 55° C. tail-withdrawal assay, antinociception of the compound itself (opioid agonist effects); type: in vivo; conditions: s.c.
[1] = naloxone; cited from earlier work

T1 sequence (P42866 whole entry): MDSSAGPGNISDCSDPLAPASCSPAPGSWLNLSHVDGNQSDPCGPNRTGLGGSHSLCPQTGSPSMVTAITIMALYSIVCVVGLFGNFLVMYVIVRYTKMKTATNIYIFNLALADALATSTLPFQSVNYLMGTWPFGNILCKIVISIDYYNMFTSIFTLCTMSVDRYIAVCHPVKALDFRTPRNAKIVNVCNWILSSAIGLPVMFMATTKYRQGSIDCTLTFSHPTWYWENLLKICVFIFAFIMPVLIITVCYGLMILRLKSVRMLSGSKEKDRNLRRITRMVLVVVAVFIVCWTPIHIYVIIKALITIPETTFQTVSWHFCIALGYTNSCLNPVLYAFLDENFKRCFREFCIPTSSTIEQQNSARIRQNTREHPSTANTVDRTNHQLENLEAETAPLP

For `C=CCN1CC[C@]23c4c5ccc(O)c4O[C@H]2[C@H](N(C)CCS(=O)(=O)F)CC[C@@]3(O)C1C5` [TJ-171], the “duration of MOR antagonism” value (MOR; 30 mg/kg, s.c.) was “at least 24 hours”, the “antagonism of morphine-induced antinociception at 24 h” value (MOR) was “fully antagonized” and the “antinociception of compound alone (opioid agonist effects)” value (mice; doses up to 30 mg/kg) was “did not display antinociception; also recorded: no antinociception”.

With `C=CCN1CCC23c4c5ccc(O)c4OC2C(N(C)CCS(=O)(=O)F)CCC3(O)C1C5` (racemic) [TJ-345] the “antagonism of morphine-induced antinociception at 24 h” value (MOR; 30 mg/kg) was “only partial blockade; also recorded: only partially antagonized”, the “duration of blockade of opiate analgesia” value (MOR; doses as low as 3 nmol (i.c.v) or 30 mg/kg (s.c.)) was 24 to 48 h and the “doses that antagonized morphine antinociception” value (MOR; i.c.v. pretreatment, not 0.3 nmol) was 3 to 300 nmol. For the same compound, the “doses that antagonized morphine antinociception” value (MOR; s.c. pretreatment, not 1 mg/kg) was 3 to 60 mg/kg and the “weak transient antinociception of compound alone” value (mice; >30 nmol i.c.v. or 60 mg/kg, first 40 min after treatment) was ~15%.

In the case of `C=CCN1CC[C@]23c4c5ccc(O)c4O[C@H]2C(=O)CC[C@@]3(O)[C@H]1C5` [naloxone], the half-life [1] is listed as 2 h.
